The results in this text go back to publication PMC8288134, “Synthesis, potential antitumor activity, cell cycle analysis, and multitarget mechanisms of novel hydrazones incorporating a 4-methylsulfonylbenzene scaffold: a molecular docking study” (Journal of Enzyme Inhibition and Medicinal Chemistry, 2021).

The test system of series [1] is HL-60(TB). In words: cells. The series is classed as cell-based, human. The settings on record: Homo sapiens, HL-60, HL-60(TB); one dose 10 µM; read-out: Growth inhibition percentage (GI%).
For series [2], the system named is K-562. In words: NCI antitumor screen (SRB). It counts as cell-based. The settings on record: Homo sapiens, K562, read-out: Growth inhibition percentage (GI%).
The subject of series [3] is MOLT-4. In words: NCI antitumor screen (SRB). The series is classed as cell-based. To be noted: Homo sapiens, one dose 10 µM, read-out: Growth inhibition percentage (GI%).
Series [4] relates to NCI-H522. In words: NCI antitumor screen (SRB). It counts as cell-based. To be noted: Homo sapiens.
The subject of series [5] is SK-MEL-2. In words: NCI antitumor screen (SRB). It counts as cell-based. To be noted: Homo sapiens.
The test system of series [6] is A498. In words: NCI antitumor screen (SRB). It counts as cell-based. The settings on record: Homo sapiens, one dose 10 µM, read-out: Growth inhibition percentage (GI%).
Series [7] has as its system PC-3. In words: NCI antitumor screen (SRB). The settings on record: Homo sapiens, one dose 10 µM, read-out: Growth inhibition percentage (GI%). The series is classed as cell-based.
Series [8] concerns full panel of 59 cancer cell lines. In words: NCI antitumor screen, full panel. The settings on record: one dose 10 µM.
In series [9] the test system is CCRF-CEM. In words: NCI antitumor screen (SRB). To be noted: Homo sapiens, one dose 10 µM, read-out: Growth inhibition percentage (GI%). The series is classed as cell-based.
In series [10] the test system is SR. In words: NCI antitumor screen (SRB). The series is classed as cell-based. To be noted: Homo sapiens, one dose 10 µM, read-out: Growth inhibition percentage (GI%).
Series [11] deals with A549/ATCC. In words: NCI antitumor screen (SRB). It counts as cell-based. To be noted: Homo sapiens, one dose 10 µM, read-out: Growth inhibition percentage (GI%).
Series [12] relates to HCT-116. In words: NCI antitumor screen (SRB). It counts as cell-based. To be noted: Homo sapiens, read-out: Growth inhibition percentage (GI%).
Series [13] deals with UACC-257. In words: NCI antitumor screen (SRB). It counts as cell-based, human. To be noted: Homo sapiens, one dose 10 µM, read-out: Growth inhibition percentage (GI%).
The test system of series [14] is NCI-H226. In words: NCI antitumor screen (SRB). It counts as cell-based. The settings on record: Homo sapiens, one dose 10 µM, read-out: Growth inhibition percentage (GI%).
The test system of series [15] is HT29. In words: NCI antitumor screen (SRB). To be noted: Homo sapiens, HT-29, one dose 10 µM, read-out: Growth inhibition percentage (GI%). It counts as cell-based.
Series [16] relates to OVCAR-8. In words: NCI antitumor screen (SRB). The series is classed as cell-based. The settings on record: Homo sapiens, one dose 10 µM, read-out: Growth inhibition percentage (GI%).
In series [17] the test system is HOP-62. In words: NCI antitumor screen (SRB). It counts as cell-based. The settings on record: Homo sapiens, HOP-62, read-out: Growth inhibition percentage (GI%).
In series [18] the test system is UO-31. In words: NCI antitumor screen (SRB). The settings on record: Homo sapiens, one dose 10 µM, read-out: Growth inhibition percentage (GI%). It counts as cell-based, human.
The test system of series [19] is SNB-75. In words: NCI antitumor screen (SRB). It counts as cell-based. To be noted: Homo sapiens, one dose 10 µM, read-out: Growth inhibition percentage (GI%).
Series [20] has as its system SK-OV-3. In words: NCI antitumor screen (SRB). It counts as cell-based. To be noted: Homo sapiens, one dose 10 µM, read-out: Growth inhibition percentage (GI%).
The subject of series [21] is T-47D. In words: NCI antitumor screen (SRB). It counts as cell-based. The settings on record: Homo sapiens, T47D, one dose 10 µM, read-out: Growth inhibition percentage (GI%).
Series [22] concerns CAKI-1. In words: NCI antitumor screen (SRB). The settings on record: Homo sapiens, one dose 10 µM, read-out: Growth inhibition percentage (GI%). It counts as cell-based.
[23] abbreviates: NCI-H522, read-out: Growth inhibition percentage (GI%).
The mark [24] stands for this setting: SK-MEL-2, read-out: Growth inhibition percentage (GI%).

SMILES strings stand for the structures. Like-named read-outs stand apart in the source and are kept apart here.

Consider `CS(=O)(=O)c1ccc(C(=O)NN=Cc2ccc(Cl)cc2)cc1` [Compound 7, N'-(4-Chlorobenzylidene)-4-(methylsulfonyl)benzohydrazide], for which the inhibition at 10 µM in series [1] worked out at 52.1%; in series [2] it was 14%; in [3] it was 29.4%; in series [4] (setting [23]), 15.7%; in series [5] (setting [24]), 12.8%; in series [6] it was 12.3%. Further, in series [7], the inhibition at 10 µM amounted to 22.8%. In addition, the “PCE: positive cytotoxic effect (number of cell lines with GI 10 to 100% / total number of cell lines)” value in series [8] is listed as 7/59.
With `CS(=O)(=O)c1ccc(C(=O)NN=Cc2ccc(F)cc2)cc1` [Compound 8, N'-(4-Fluorobenzylidene)-4-(methylsulfonyl)benzohydrazide], the inhibition at 10 µM in series [9] was determined as 11.8%; in [1], 23.1%; in series [2], 13.6%; in series [3] it was 23.9%; in [10] it was 20.2%; in series [11] it was 11.1%. Besides, the inhibition at 10 µM in series [4] (setting [23]) was 15.9%; in [12] it was 10.8%; in [13] (UACC-257) it was 18.4%. For the same compound, in [8], the “PCE: positive cytotoxic effect (number of cell lines with GI 10 to 100% / total number of cell lines)” value was 9/59.
Take `COc1ccc(C=NNC(=O)c2ccc(S(C)(=O)=O)cc2)cc1` [Compound 10, N'-(4-Methoxybenzylidene)-4-(methylsulfonyl)benzohydrazide]: the inhibition at 10 µM in [9] turned out to be 10.6%; in series [1], 42.9%; in series [3], 21.1%; in [11], 29.8%; in series [14], 13.4%; in series [4] (setting [23]), 20.8%. Moreover, the inhibition at 10 µM in series [15] is 10.8%; in series [5] (setting [24]), 11.8%; in series [13] (UACC-257) it was 29%; in series [16] it was 11.3%; in series [7], 13.8%. For the same compound, the “PCE: positive cytotoxic effect (number of cell lines with GI 10 to 100% / total number of cell lines)” value in series [8] is reported as 11/59.
As for `CS(=O)(=O)c1ccc(C(=O)N/N=C/c2ccc(O)cc2)cc1` [Compound 11], the inhibition at 10 µM was 50.5% in [1]; 26.2% in series [2]; 32.5% in series [3]; 11.7% in [4] (setting [23]); 10.9% in [7]. The “PCE: positive cytotoxic effect (number of cell lines with GI 10 to 100% / total number of cell lines)” value in series [8] was 5/59.
In the case of `CN(C)c1ccc(C=NNC(=O)c2ccc(S(C)(=O)=O)cc2)cc1` [Compound 12, N'-(4-(Dimethylamino)benzylidene)-4-(methylsulfonyl)benzohydrazide], the inhibition at 10 µM in [1] was found to be 38%; in [2] it was 17.2%; in series [3], 29.8%; in series [11], 28.4%; in [17] it was 11.4%; in [4] (setting [23]) it was 40.4%. For the same compound, the inhibition at 10 µM in series [15] came out at 20.5%; in series [13] (UACC-257), 39.2%; in series [18] (UO-31), 11.2%. Besides, the “PCE: positive cytotoxic effect (number of cell lines with GI 10 to 100% / total number of cell lines)” value in series [8] was 9/59.
On to `CS(=O)(=O)c1ccc(C(=O)NN=Cc2ccccc2Cl)cc1` [Compound 13, N'-(2-Chlorobenzylidene)-4-(methylsulfonyl)benzohydrazide], for which the inhibition at 10 µM turned out to be 47.7% in series [1]; 32.5% in [2]; 32.3% in [3]; 21.6% in series [11]; 12.7% in [17]; 15.1% in series [19]. Also, the inhibition at 10 µM in series [13] (UACC-257) came to 35.5%; in series [20], 11.7%; in series [18] (UO-31) it was 15.7%; in [21], 12.5%. In addition, the “PCE: positive cytotoxic effect (number of cell lines with GI 10 to 100% / total number of cell lines)” value in [8] is listed as 10/59.
On to `CS(=O)(=O)c1ccc(C(=O)NN=Cc2ccccc2F)cc1` [Compound 14, N'-(2-Fluorobenzylidene)-4-(methylsulfonyl)benzohydrazide], for which the inhibition at 10 µM came to 36% in series [1]; 25.7% in series [2]; 26.4% in [3]; 49.2% in series [10]; 29.3% in [11]; 15.8% in series [17]. Besides, the inhibition at 10 µM worked out at 26% in series [4] (setting [23]); 18.6% in series [15]; 42.4% in [13] (UACC-257); 14.5% in series [16]; 11.7% in [22]; 11.8% in series [21]. The “PCE: positive cytotoxic effect (number of cell lines with GI 10 to 100% / total number of cell lines)” value in series [8] is listed as 12/59.
Turning to `COc1ccccc1C=NNC(=O)c1ccc(S(C)(=O)=O)cc1` [Compound 15, N'-(2-Methoxybenzylidene)-4-(methylsulfonyl)benzohydrazide], the inhibition at 10 µM came out at 16.1% in series [9]; 36.5% in series [1]; 23.4% in series [2]; 11.6% in series [3]; 15.6% in [10]; 11.9% in series [11]. In addition, the inhibition at 10 µM in series [17] amounted to 18.9%; in series [14], 10.3%; in [12], 10.7%; in series [13] (UACC-257), 10.1%; in series [20], 17.1%; in series [18] (UO-31), 14.4%. The inhibition at 10 µM was determined as 19.1% in series [7] and 18.2% in series [21]. In addition, in series [8], the “PCE: positive cytotoxic effect (number of cell lines with GI 10 to 100% / total number of cell lines)” value is on record as 14/59.
As to `COc1ccc(C=NNC(=O)c2ccc(S(C)(=O)=O)cc2)cc1OC` [Compound 21, N'-(3,4-Dimethoxybenzylidene)-4-(methylsulfonyl)benzohydrazide], the inhibition at 10 µM in series [1] is 45.9%; in [2], 19.1%; in series [3], 34.1%; in series [4] (setting [23]), 15.7%; in series [12], 11%; in [19], 14.2%. The inhibition at 10 µM in [22] turned out to be 11%; in series [7] it was 11.5%. Besides, the “PCE: positive cytotoxic effect (number of cell lines with GI 10 to 100% / total number of cell lines)” value in [8] is on record as 8/59.
On to `CS(=O)(=O)c1ccc(C(=O)NN=Cc2ccc3c(c2)OCO3)cc1` [Compound 22, N'-(Benzo[d][1,3]dioxol-5-ylmethylene)-4-(methylsulfonyl)benzohydrazide], for which the inhibition at 10 µM in series [9] amounted to 13%; in series [1], 43%; in [2], 14.5%; in series [3] it was 29.9%; in series [11], 32.3%; in series [4] (setting [23]), 14%. Also, the values for the inhibition at 10 µM in [15], in [5] (setting [24]) and in series [13] (UACC-257) were 11%, 10.9% and 40.9%, respectively. For the same compound, in [8], the “PCE: positive cytotoxic effect (number of cell lines with GI 10 to 100% / total number of cell lines)” value is listed as 9/59.
Turning to `COc1cc(OC)c(OC)cc1/C=N/NC(=O)c1ccc(S(C)(=O)=O)cc1` [Compound 24], the inhibition at 10 µM in series [3] is 21.4%; in [11] it was 17.1%; in series [4] (NCI-H522, one dose 10 µM, read-out: Growth inhibition percentage (GI%)) it was 39.8%; in series [15], 17.9%; in series [5] (SK-MEL-2, one dose 10 µM, read-out: Growth inhibition percentage (GI%)) it was 11.7%; in [13] (UACC-257, UACC-257), 21.6%. The inhibition at 10 µM in series [18] (UO-31, UO-31) worked out at 10.5%; in series [7], 18.6%. Further, in series [8], the “PCE: positive cytotoxic effect (number of cell lines with GI 10 to 100% / total number of cell lines)” value is 8/59.

The term inhibition denotes the drop in the measured response relative to a control, in per cent.
